Test [1] deals with T1, AMPK protein (recombinant α1β1γ2) (Homo sapiens, UniProt Q13131+Q9Y478).
T1 construct: made in house; host or cells: E. coli
The experiment in a line: AMPK enzymatic activity (Delfia, AMARA peptide substrate). The conditions noted are these: compound 30 μM vs AMP 30 μM; 125 μM ATP; ratio 90% or higher = direct activator. The format is biochemical. The protocol:
The following biological test allows the determination of the efficacy of such compounds of formula (I) onto AMPK protein (recombinant α1β1γ2).
Human recombinant AMPK enzyme was expressed in E. Coli and was reactivated in vitro by LKB1 prior to enzyme activity determination.
AMPK enzyme activities were assayed by using A Delfia technology. AMPK enzyme activities were carried out in microtiter plates (50 mM Hepes buffer, pH 7.4 with 125 μM ATP respectively) in the presence of a synthetic peptide substrate (AMARAASAAALARRR, the “AMARA” peptide) and activators in serial dilutions. Reactions were initiated by the addition of AMPK (50-100 ng). Following mixing, the plates were incubated for 30 min at room temperature. Enzyme activity was assayed by using an anti-phosphoserine antibody to measure the quantity of phosphate incorporated into the AMARAA.
(§1) N°: Number of the molecule
Activity: Ratio between the % of control (basal activity) of compound of formula (I) at 30 μM and the % of control (basal activity) of AMP (natural substrate) at 30 μM.
Compounds of formula (I) in the table II are considered as direct activator of AMPK if the ratio is 90% or higher.

The test system of test [2] is H-2 Kb cells. Put plainly: Glucose uptake in H-2 Kb cells (in vitro cellular test). The format is cell-based, mouse. To be noted: H-2 Kb cells differentiated in muscle, 4 hours incubation, 2-deoxy-D-[1,2 3H] glucose uptake 10 min. The protocol:
Glucose Uptake in H-2 Kb Cells (In Vitro Cellular Test)
The following cellular test allows the determination of the effect of AMPK activators such as compounds of formula (I) onto glucose uptake in a muscle cellular model.
H-1-2 Kb cells derived from heterozygous H-2 Kb tsA58 transgenic mouse were grown in 24-well in plates coated with matrigel and were cultured at 33° C. for 4 days under permissive conditions, as described previously by Fryer et al. (Diabetes 49 (12): 1978, 2000).
For differentiation in muscle, cells were switched to non-permissive culture conditions (37° C. in the absence of interferon-γ). After 3 days, cells were incubated for 4 hours in DMEM 1 g/l glucose culture medium containing different concentrations of the tested molecules. Then glucose uptake was measured by incubating the cells for 10 min with radiolabelled 2-deoxy-D-[1,2 ^3H] glucose. Glucose uptake was terminated by rapidly washing the plates 2 times with ice-cold NaCl 0.9%. The cells were then solubilized in 0.1N NaOH for 30 min. Radioactivity was determined by liquid scintillation counting.
as §1
Activity (table III): Concentration of compound (I) for a glucose uptake equal or higher to glucose uptake induced by insulin (170 nM)
^++ or **concentration of compound (I) ≦10 micro Molar
^+ or *concentration of compound (I) >10 micro Molar

SMILES strings stand for the structures.

T1 sequence (Q13131 whole entry): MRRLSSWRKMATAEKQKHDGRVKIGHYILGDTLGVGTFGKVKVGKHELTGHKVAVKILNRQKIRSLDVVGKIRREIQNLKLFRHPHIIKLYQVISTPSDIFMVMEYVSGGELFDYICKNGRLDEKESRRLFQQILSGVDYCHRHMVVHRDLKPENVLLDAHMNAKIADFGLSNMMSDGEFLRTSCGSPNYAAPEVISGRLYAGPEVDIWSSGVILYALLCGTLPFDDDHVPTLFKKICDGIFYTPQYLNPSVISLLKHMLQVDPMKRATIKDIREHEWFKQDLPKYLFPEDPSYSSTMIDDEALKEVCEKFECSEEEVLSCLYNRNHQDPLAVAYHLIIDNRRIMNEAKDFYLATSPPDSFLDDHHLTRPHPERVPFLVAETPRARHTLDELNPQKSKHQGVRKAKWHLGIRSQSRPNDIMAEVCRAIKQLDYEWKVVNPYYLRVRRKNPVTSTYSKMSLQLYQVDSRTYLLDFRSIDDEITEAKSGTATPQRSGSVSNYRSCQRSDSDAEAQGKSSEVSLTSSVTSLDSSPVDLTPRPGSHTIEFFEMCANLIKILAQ
T1 sequence (Q9Y478 whole entry): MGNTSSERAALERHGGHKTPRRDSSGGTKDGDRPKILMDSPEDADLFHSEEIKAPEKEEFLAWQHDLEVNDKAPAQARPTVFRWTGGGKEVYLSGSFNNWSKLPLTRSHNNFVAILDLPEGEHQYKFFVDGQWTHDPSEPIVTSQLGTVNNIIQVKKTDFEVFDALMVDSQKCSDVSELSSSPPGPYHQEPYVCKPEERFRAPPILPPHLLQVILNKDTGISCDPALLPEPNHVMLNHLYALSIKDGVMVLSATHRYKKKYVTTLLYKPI
T1 sequence (Q9UGJ0 whole entry partner): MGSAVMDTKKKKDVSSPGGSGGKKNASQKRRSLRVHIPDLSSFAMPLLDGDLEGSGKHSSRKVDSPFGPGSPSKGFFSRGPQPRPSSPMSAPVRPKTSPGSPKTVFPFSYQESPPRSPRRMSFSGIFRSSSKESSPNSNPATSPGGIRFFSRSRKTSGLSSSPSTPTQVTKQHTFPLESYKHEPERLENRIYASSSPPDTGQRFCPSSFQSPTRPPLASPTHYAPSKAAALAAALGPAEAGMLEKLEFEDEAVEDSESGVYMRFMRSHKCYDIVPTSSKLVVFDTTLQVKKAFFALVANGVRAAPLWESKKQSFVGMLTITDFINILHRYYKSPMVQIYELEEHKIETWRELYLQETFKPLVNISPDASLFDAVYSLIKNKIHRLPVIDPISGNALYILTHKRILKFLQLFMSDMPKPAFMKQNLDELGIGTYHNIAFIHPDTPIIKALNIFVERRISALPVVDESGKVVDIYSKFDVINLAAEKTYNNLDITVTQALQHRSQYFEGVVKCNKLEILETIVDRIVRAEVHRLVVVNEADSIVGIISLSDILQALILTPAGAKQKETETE

Consider `O=c1[nH]c2sc(Br)c(-c3ccccc3)c2c(O)c1-c1ccccc1` [Compound 161], for which, in test [1], the “activity: Ratio between the % of control (basal activity) of compound of formula (I) at 30 μM and the % of control (basal activity) of AMP at 30 μM” value (shortened to “activity: Ratio between the % of control”) is 113%. Further, in test [2], the “Activity (table III): Concentration of compound (I) for a glucose uptake equal or higher to glucose uptake induced by insulin (170 nM)” value (“Activity (table III): Concentration” below) is recorded as “** (^++ or **concentration of compound (I) ≦10 micro Molar)”.

Turning to `Cc1ccc(-c2c(Cl)sc3[nH]c(=O)c(-c4cccc(C(=O)O)c4)c(O)c23)c(O)c1` [Compound 192], the “activity: Ratio between the % of control” value in test [1] is 193%. In addition, the “Activity (table III): Concentration” value in test [2] was “++ (^++ or **concentration of compound (I) ≦10 micro Molar)”.

For `COc1cccc(-c2c(O)c3c(-c4ccccc4)c(Cl)sc3[nH]c2=O)c1` [Compound 149], in test [1], the “activity: Ratio between the % of control” value is given as 120%. For the same molecule, in test [2], the “Activity (table III): Concentration” value is “** (^++ or **concentration of compound (I) ≦10 micro Molar)”.

As for `O=c1[nH]c2scc(-c3ccc(Cl)cc3)c2c(O)c1-c1ccccc1` [Compound 26], the “activity: Ratio between the % of control” value in test [1] stood at 128%. Further, the “Activity (table III): Concentration” value in test [2] is given as “* (^+ or *concentration of compound (I) >10 micro Molar)”.

For the molecule `COc1ccc(-c2c(O)c3c(-c4ccc(F)cc4O)c(Cl)sc3[nH]c2=O)cc1` [Compound 212], the “activity: Ratio between the % of control” value in test [1] amounted to 183%. Further, the “Activity (table III): Concentration” value in test [2] is listed as “+ (^+ or *concentration of compound (I) >10 micro Molar)”.

Turning to `O=c1[nH]c2sc(Cl)c(-c3ccc(O)c(F)c3)c2c(O)c1-c1ccccc1` [Compound 109], the “activity: Ratio between the % of control” value in test [1] was determined as 200%. Further, in test [2], the “Activity (table III): Concentration” value is on record as “** (^++ or **concentration of compound (I) ≦10 micro Molar)”.

In the case of `O=c1[nH]c2sc(Cl)c(-c3ccc(F)c(F)c3)c2c(O)c1-c1ccccc1` [Compound 100], the “activity: Ratio between the % of control” value in test [1] amounted to 103%. In test [2], the “Activity (table III): Concentration” value is “** (^++ or **concentration of compound (I) ≦10 micro Molar)”.

On to `COc1ccc(-c2c(O)c3c(-c4ccccc4)c(Cl)sc3[nH]c2=O)cc1` [Compound 157], for which the “activity: Ratio between the % of control” value in test [1] amounted to 147%. In addition, the “Activity (table III): Concentration” value in test [2] is on record as “** (^++ or **concentration of compound (I) ≦10 micro Molar)”.

In the case of `O=c1[nH]c2sc(Cl)c(-c3ccc4ccccc4c3)c2c(O)c1-c1ccccc1` [Compound 137], in test [1], the “activity: Ratio between the % of control” value worked out at 129%. In addition, the “Activity (table III): Concentration” value in test [2] was “* (^+ or *concentration of compound (I) >10 micro Molar)”.

Regarding `O=c1[nH]c2scc(-c3ccc4ccccc4c3)c2c(O)c1-c1ccccc1` [Compound 33], the “activity: Ratio between the % of control” value in test [1] was 201%. In addition, the “Activity (table III): Concentration” value in test [2] is listed as “* (^+ or *concentration of compound (I) >10 micro Molar)”.

Turning to `COc1ccc(-c2csc3[nH]c(=O)c(-c4ccccc4)c(O)c23)c(F)c1` [Compound 63], the “activity: Ratio between the % of control” value in test [1] is listed as 115%. Besides, the “Activity (table III): Concentration” value in test [2] is recorded as “* (^+ or *concentration of compound (I) >10 micro Molar)”.

Turning to `CC(C)c1ccc(-c2c(Cl)sc3[nH]c(=O)c(-c4ccccc4)c(O)c23)cc1` [Compound 182], in test [1], the “activity: Ratio between the % of control” value is reported as 165%. Besides, in test [2], the “Activity (table III): Concentration” value was “+ (^+ or *concentration of compound (I) >10 micro Molar)”.

In the case of `O=c1[nH]c2sc(Cl)c(-c3cc(F)ccc3O)c2c(O)c1-c1ccccc1` [Compound 108], the “activity: Ratio between the % of control” value in test [1] worked out at 305%. The “Activity (table III): Concentration” value in test [2] is reported as “* (^+ or *concentration of compound (I) >10 micro Molar)”.

On to `COc1ccc(-c2c(O)c3c(-c4ccccc4)c(Cl)sc3[nH]c2=O)cc1OC` [Compound 177], for which, in test [1], the “activity: Ratio between the % of control” value came out at 234%. Besides, the “Activity (table III): Concentration” value in test [2] is recorded as “++ (^++ or **concentration of compound (I) ≦10 micro Molar)”.

For the molecule `COc1cc(-c2c(Cl)sc3[nH]c(=O)c(-c4ccccc4)c(O)c23)ccc1C` [Compound 103], the “Activity (table III): Concentration” value in test [2] was “* (^+ or *concentration of compound (I) >10 micro Molar)”.

Regarding `CNC(=O)c1ccc(-c2c(O)c3c(-c4ccccc4)c(Cl)sc3[nH]c2=O)cc1` [Compound 150], the “activity: Ratio between the % of control” value in test [1] is 130%.

In the case of `O=c1[nH]c2sc(Cl)c(-c3ccccc3)c2c(O)c1-c1ccccc1OCc1ccccc1` [Compound 158], in test [1], the “activity: Ratio between the % of control” value turned out to be 110%.

For the molecule `Cc1ccc(-c2c(Cl)sc3[nH]c(=O)c(-c4cccc(C#N)c4)c(O)c23)c(O)c1` [Compound 101], in test [2], the “Activity (table III): Concentration” value is recorded as “* (^+ or *concentration of compound (I) >10 micro Molar)”.

As for `NC(=O)c1ccc(-c2c(O)c3c(-c4ccccc4)c(Cl)sc3[nH]c2=O)cc1` [Compound 151], the “activity: Ratio between the % of control” value in test [1] came to 134%.

For `O=c1[nH]c2scc(-c3ccc(O)cc3O)c2c(O)c1-c1ccccc1` [Compound 61], the “activity: Ratio between the % of control” value in test [1] was 146%.

Turning to `Cc1ccc(-c2c(Cl)sc3[nH]c(=O)c(-c4ccccc4)c(O)c23)cc1O` [Compound 102], the “Activity (table III): Concentration” value in test [2] is “** (^++ or **concentration of compound (I) ≦10 micro Molar)”.

On to `COc1cc(-c2csc3[nH]c(=O)c(-c4ccccc4)c(O)c23)ccc1C` [Compound 84], for which the “activity: Ratio between the % of control” value in test [1] is recorded as 158%.

Turning to `CCCCc1ccc(-c2c(Cl)sc3[nH]c(=O)c(-c4ccccc4)c(O)c23)cc1` [Compound 134], the “activity: Ratio between the % of control” value in test [1] was found to be 93%.

As for `CNC(=O)c1cccc(-c2c(O)c3c(-c4ccccc4)c(Cl)sc3[nH]c2=O)c1` [Compound 141], the “activity: Ratio between the % of control” value in test [1] worked out at 403%.

For `O=c1[nH]c2scc(-c3ccc(O)cc3F)c2c(O)c1-c1ccccc1` [Compound 62], the “activity: Ratio between the % of control” value in test [1] came out at 101%.

Regarding `COc1ccc(-c2csc3[nH]c(=O)c(-c4ccc(F)cc4)c(O)c23)cc1` [Compound 42], the “activity: Ratio between the % of control” value in test [1] was found to be 110%.

As for `O=c1[nH]c2scc(-c3cc(O)cc(O)c3)c2c(O)c1-c1ccccc1` [Compound 68], the “activity: Ratio between the % of control” value in test [1] is reported as 96%.

As for `O=c1[nH]c2scc(-c3ccc(Br)cc3)c2c(O)c1-c1ccncc1` [Compound 29], in test [1], the “activity: Ratio between the % of control” value came out at 103%.

As to `COc1cc(C)ccc1-c1c(Cl)sc2[nH]c(=O)c(-c3ccccc3)c(O)c12` [Compound 105], in test [1], the “activity: Ratio between the % of control” value was 206%.

For the molecule `O=c1[nH]c2sc(Cl)c(-c3cccc(CO)c3)c2c(O)c1-c1ccccc1` [Compound 124], in test [1], the “activity: Ratio between the % of control” value is 195%.

Regarding `O=c1[nH]c2scc(-c3ccc(F)cc3O)c2c(O)c1-c1ccccc1` [Compound 66], in test [1], the “activity: Ratio between the % of control” value is 144%.

The values above are taken from patent publication US8563729B2, “Thienopyridone derivatives as AMP-activated protein kinase (AMPK) activators” (Merck Patent GmbH, priority 2008, dated 2013).
